Data taken from publication PMC11281031, “A Machine-Learning-Driven Pathophysiology-Based New Approach Method for the Dose-Dependent Assessment of Hazardous Chemical Mixtures and Experimental Validations” (Toxics, 2024).

Experiments:
Type in all cases: in vivo
[1] = tested on: zebrafish embryos; test: Dose-response zebrafish live assay, single chemicals (developmental toxicity); settings: for concentration at which embryos were relatively normal / symptoms absent / lowest dose causing significant developmental abnormalities (toxic at): 2 dpf; for lethal concentration: 100% lethality / lethal by
Protocol: Dose-dependent toxicities in zebrafish embryos were assessed by the lowest dose that caused significant developmental abnormalities 2 days post-fertilization (2 dpf) in a dose-response live assay. […] Starting with Pyraclostrobin, it was identified as toxic at 30 nM. It induced developmental delays in the embryos without visible deformities. […] It appeared relatively normal at 5 µM. This twitching phenotype indicates specific neuronal toxicity. […] These symptoms were absent at lower concentrations (30 µM), highlighting a dosage-sensitive relationship.
(§1) First, the toxicity of single chemicals in zebrafish embryos is determined. Using the toxicity data of single chemicals as a baseline, we screened mixtures for altered activity and characterized the optimal concentration ratios of components. For chemical treatments, 1000× working stocks are prepared in DMSO. Dechorionated zebrafish embryos, […], are placed in 0.5 mL of fish water (0.3 g/L sea salt) in 24-well plates. The 1000× stock solution of chemicals is diluted to 2× in fish water with 2% DMSO added. Then, 0.5 mL of the 2× diluted chemical solution is added to the 0.5 mL of fish water containing the embryos to achieve a final concentration of 1× compound in 1% DMSO.
Figure 9 Dose-dependent toxicity assessment of AI-CPTM predicted chemicals (Table 1, Table 2, Table 3 and Table 4) as the lowest dose leading to, what is defined here, as significant developmental abnormalities at 2 days post-fertilization (2 dpf) in a dose-response zebrafish live assay.
We assessed individual chemicals for developmental toxicity, indicating any disruption in embryonic development from 1 to 4 days post-fertilization (dpf). Embryos are exposed to chemicals in their bath water from 1 dpf to 4 dpf, without changing the water during exposure. Initially, chemicals are screened by testing them at a series of concentrations increasing by half-log steps. […] Each embryo is assigned a score reflecting the severity of observed phenotypes, with the average score representing the group. The EC50 for developmental toxicity is defined as a score of five on this teratogenicity scale (Figure 10 and Supplementary Material S2). Once the effective range is identified, the EC50 is determined by testing a linear series of concentrations spanning from non-toxic to toxic levels. For chemicals not toxic at 10 µM, tests are extended up to 200 µM, with those showing no effects at this level considered non-toxic.

[2] = tested on: zebrafish embryos; test: Zebrafish-embryo mixture toxicity, mixed chemical phenotype score and interaction; settings: with DMSO, max 20 = normal
Protocol: as §1
Figure 10 Mixed chemical phenotypes and how they are scored. The mixed chemical phenotype score is the sum of the scores for the five individual fish in a well. Two wells were treated per chemical combination, and the scores are averaged for the wells. Scoring was as follows: dead = 0; severely deformed = 1; deformed = 2; slightly deformed = 3; and normal phenotypes = 4.
We tested the top 300 chemical mixtures, as prioritized by AI-CPTM, which were randomly selected and readily purchasable, on zebrafish embryos. […] We then compared the toxicity predictions made by the machine-learning model with the results obtained from the zebrafish assays.
The EC50, indicating the median effective concentration for developmental toxicity, is determined using morphological criteria. Fish are identified by date and well number (Figure 10). In each well containing five fish, the mixed compound phenotype score is the sum of the scores for the individual fish. Two wells are treated per combination, and the scores are averaged across these wells (Supplementary Material S2). Scoring follows this scale: dead = 0; severely deformed = 1; deformed = 2; slightly deformed = 3; normal phenotypes = 4. […] The EC50 and lowest observable effect concentration (LOEC) for binary mixtures are determined by testing a linear concentration series of the first chemical against five concentrations of the second chemical, including a vehicle control.

[3] = tested on: zebrafish embryos; test: PFOS/PFOA zebrafish-embryo lethality (LD50), sub-lethal effects (EC50) and mixture survival assay; settings: for LD50: embryos exposed at 2 dpf for 24 h at 33 °C, average of three experiments; for EC50: sub-lethal adverse effects, exposed at 2 dpf for 24 h at 33 °C
Text: The methodology for assessing the toxicity in zebrafish is detailed in our earlier publication. The data presented in Table 3 and Table 4 and Figure 12 show the acute and sub-lethal toxicity of PFOS and PFOA individually and in combination with zebrafish embryos. This initial study offered a comparative insight into their toxic profiles in terms of lethal (LD50) and effective (EC50) concentrations, which are important for measuring their toxic effects. […] These concentrations reflect the exposure of zebrafish embryos to PFOS and PFOA at 2 days post-fertilization (dpf) for one day at a temperature of 33 °C. […] These effects include severe developmental abnormalities, such as bent body axis, edema, cloudy tissue formation, and developmental delays, signaling significant toxicity even at lower concentrations.
We explored further the combined effects of PFOS and PFOA, as shown in Table 4 and Figure 12, to examine how varying concentrations of PFOS affect the LD50 of PFOA in a mixture. The LD50 is the dose at which 50% of the embryos are dead. […] A five dose-response curve for PFOA was tested against three fixed concentrations, 68 µM, 38 µM, and 22 µM of PFOS at 2 dpf for one day at 33 °C. […] Nonetheless, as each experiment is internally controlled, relative toxicity and mixture interactions are accurately detected.
PFOS requires a lower concentration to be lethal and affects development at much lower concentrations compared to PFOA. […] Five concentrations of PFOA were tested to generate the dose-response curves. […] Overall, these experiments support predictions of AI-CPTM toxicity and chemical interaction effects.

[4] = single chemical, tested up to 200 µM

For `CC(CNCc1ccccc1O)NCc1ccccc1O` (stereo not drawn) [Motor fuel oil, Alpha, alpha’-(1-methylethylenediimino)di-ortho-cresol], the “concentration at which embryos were relatively normal / symptoms absent” value ([1]; single chemical) was 1000 nM, the “lowest dose causing significant developmental abnormalities (toxic at)” value [1, 4] was 5 µM and the lethal concentration ([1]; single chemical) was 10 µM. For the same compound, the “phenotype score of single chemical (Average / Compound #1 / Compound #2 phenotype score)” value ([2]; 2.5 µM) was 16 and the “phenotype score of single chemical (Average / Compound #1 / Compound #2 phenotype score)” value ([2]; 5 µM) was 6.

In the case of `CCCCC(CC)COC(=O)c1ccccc1C(=O)OCC(CC)CCCC` (stereo not drawn) [Bis-(2-Ethylhexyl) Phthalate], the “effect on embryo development (Figure 11)” value ([1]; at 200 µm) is reported as “pronounced deformities” and the “lowest dose causing significant developmental abnormalities (toxic at)” value [1, 4] is reported as over 200 µM.

`CC/C(=N\OC/C=C/Cl)C1=C(O)CC(C2CCOCC2)CC1=O` (stereo not drawn) [Tepraloxydim] was tested, and the “effect on embryo development (Figure 11)” value ([1]; at 200 µm) was “moderate deformities” and the “lowest dose causing significant developmental abnormalities (toxic at)” value [1, 4] was over 200 µM.

In the case of `Oc1c(Br)cc(Br)cc1Br` [2,4,6-Tribromophenol], the “lowest dose causing significant developmental abnormalities (toxic at)” value [1, 4] is reported as 2 µM, the lethal concentration ([1]; single chemical) is reported as 10 µM and the “phenotype score of single chemical (Average / Compound #1 / Compound #2 phenotype score)” value ([2]; 2 µM) is reported as 14. For the same compound, the “phenotype score of single chemical (Average phenotype score)” value ([2]; 4 µM) was 0.

In the case of `COCc1cnc(C2=NC(C)(C(C)C)C(=O)N2)c(C(=O)O)c1` (stereo not drawn) [Imazamox], the “effect on embryo development (Figure 11)” value ([1]; at 200 µm) is reported as “marked malformations and growth retardation” and the “lowest dose causing significant developmental abnormalities (toxic at)” value [1, 4] is reported as over 200 µM.

`CCCCOCN(C(=O)CCl)c1c(CC)cccc1CC` [Butachlor] was tested, and the “effect on embryo development (Figure 11)” value ([1]; at 200 µm) was “pronounced deformities”, the “concentration at which embryos were relatively normal / symptoms absent” value ([1]; single chemical) was 100000 nM and the “lowest dose causing significant developmental abnormalities (toxic at)” value [1, 4] was 200 µM. For the same compound, the “phenotype score of single chemical (Average / Compound #1 / Compound #2 phenotype score)” value ([2]; 100 µM) was 16 and the “phenotype score of single chemical (Average phenotype score)” value ([2]; 200 µM) was 0.

With `CC(C)(C)[C@@H](O)[C@@H](Cc1ccc(Cl)cc1)n1cncn1` (racemic) [Paclobutrazol] the “concentration at which embryos were relatively normal / symptoms absent” value ([1]; single chemical) was 30000 nM, the “lowest dose causing significant developmental abnormalities (toxic at)” value [1, 4] was 50 µM and the “phenotype score of single chemical (Average / Compound #1 / Compound #2 phenotype score)” value ([2]; 50 µM) was 17.5. The “phenotype score of single chemical (Average / Compound #1 / Compound #2 phenotype score)” value ([2]; 100 µM) was 20.

In the case of `COc1nc(C)nc(NC(=O)NS(=O)(=O)c2ccccc2OCCCl)n1` [Triasulfuron], the “lowest dose causing significant developmental abnormalities (toxic at)” value [1, 4] is reported as over 200 µM.

With `O=C(O)C(F)(F)C(F)(F)C(F)(F)C(F)(F)C(F)(F)C(F)(F)C(F)(F)F` [PFOA, Perfluorooctanoic acid (PFOA)] the LD50 [3] was 187.5 µM and the EC50 [3] was 29.5 µM.

In the case of `COC(=O)N(OC)c1ccccc1COc1ccn(-c2ccc(Cl)cc2)n1` [Pyraclostrobin], the “effect on embryo development (Figure 11)” value ([1]; at 30 nm) is reported as “minimal effects”, the “effect on embryo development (Figure 11)” value ([1]; at 200 µm) is reported as “significant embryonic damage” and the “concentration resulting in embryo lysis” value ([1]; single chemical) is reported as 100 nM. The “lowest dose causing significant developmental abnormalities (toxic at)” value ([1]; single chemical) was 0.03 µM, the “phenotype score of single chemical (Average / Compound #1 / Compound #2 phenotype score)” value ([2]; 0.01 µM) was 20 and the “phenotype score of single chemical (Average phenotype score)” value ([2]; 0.02 µM) was 20.

`CC1(C)C(C=C(Cl)Cl)C1C(=O)OC(C#N)c1ccc(F)c(Oc2ccccc2)c1` (stereo not drawn) [Baythroid] was tested, and the “effect on embryo development (Figure 11)” value ([1]; at 200 µm) was “pronounced deformities” and the “lowest dose causing significant developmental abnormalities (toxic at)” value [1, 4] was 20 µM.

For `CC(C)(C)c1ccc(CSc2cnn(C(C)(C)C)c(=O)c2Cl)cc1` [Pyridaben], the “effect on embryo development (Figure 11)” value ([1]; at 50 nm) was “noticeable developmental delays and morphological abnormalities”, the “concentration causing developmental stalling at the 8-somite stage” value ([1]; single chemical) was 100 nM and the “lowest dose causing significant developmental abnormalities (toxic at)” value ([1]; single chemical) was 0.05 µM. For the same compound, the “phenotype score of single chemical (Average / Compound #1 / Compound #2 phenotype score)” value ([2]; 0.05 µM) was 20 and the “phenotype score of single chemical (Average phenotype score)” value ([2]; 0.1 µM) was 18.5.

With `O=S(=O)(O)C(F)(F)C(F)(F)C(F)(F)C(F)(F)C(F)(F)C(F)(F)C(F)(F)C(F)(F)F` [PFOS, Perfluorooctane sulfonic acid (PFOS)] the survival ([3]; 68 μM PFOS, 0 μM PFOA) was 100%, the LD50 [3] was 53 µM and the EC50 [3] was 11 µM.

For `O=C(OC1CCCCC1)c1ccccc1C(=O)OC1CCCCC1` [Dicyclohexyl Phthalate, Dicyclohexyl Phthalate (DCHP)], the “effect on embryo development (Figure 11)” value ([1]; at 200 µm) was “marked malformations and growth retardation”, the “lowest dose causing significant developmental abnormalities (toxic at)” value [1, 4] was 200 µM and the “phenotype score of single chemical (Average / Compound #1 / Compound #2 phenotype score)” value ([2]; 100 µM) was 20. For the same compound, the “phenotype score of single chemical (Average phenotype score)” value ([2]; 200 µM) was 20.

With `COc1cnc(OC)n2nc(NS(=O)(=O)c3c(OCC(F)F)cccc3C(F)(F)F)nc12` [Penoxsulam] the “effect on embryo development (Figure 11)” value ([1]; at 200 µm) was “moderate deformities” and the “lowest dose causing significant developmental abnormalities (toxic at)” value [1, 4] was over 200 µM.

With `CC(C)=CC1C(C(=O)OCN2C(=O)C3=C(CCCC3)C2=O)C1(C)C` (stereo not drawn) [Tetramethrin] the “effect on embryo development (Figure 11)” value ([1]; at 200 µm) was “pronounced deformities”, the “lowest dose causing significant developmental abnormalities (toxic at)” value [1, 4] was 5 µM and the “phenotype score of single chemical (Average / Compound #1 / Compound #2 phenotype score)” value ([2]; 5 µM) was 20. The “phenotype score of single chemical (Average phenotype score)” value ([2]; 10 µM) was 15.

For `CC1(C)C(C(=O)OC(C#N)c2cccc(Oc3ccccc3)c2)C1(C)C` (stereo not drawn) [Fenpropathrin], the “concentration at which embryos were relatively normal / symptoms absent” value ([1]; single chemical) was 5000 nM, the “lowest dose causing significant developmental abnormalities (toxic at)” value [1, 4] was 10 µM and the “phenotype score of single chemical (Average / Compound #1 / Compound #2 phenotype score)” value ([2]; 5 µM) was 10. The “phenotype score of single chemical (Average phenotype score)” value ([2]; 10 µM) was 0.
